Target: T1, β-glucuronidase (GUS) (Escherichia coli, UniProt P05804)
T1 construct: gene uidA; purified GUS encoded by E. coli (G8420-25KU, Sigma-Aldrich)
Assay: colorimetric PNPG hydrolysis (p-nitrophenol release) with purified enzyme; complete inhibition at […]
Assay type: biochemical

T1 sequence (P05804 whole entry): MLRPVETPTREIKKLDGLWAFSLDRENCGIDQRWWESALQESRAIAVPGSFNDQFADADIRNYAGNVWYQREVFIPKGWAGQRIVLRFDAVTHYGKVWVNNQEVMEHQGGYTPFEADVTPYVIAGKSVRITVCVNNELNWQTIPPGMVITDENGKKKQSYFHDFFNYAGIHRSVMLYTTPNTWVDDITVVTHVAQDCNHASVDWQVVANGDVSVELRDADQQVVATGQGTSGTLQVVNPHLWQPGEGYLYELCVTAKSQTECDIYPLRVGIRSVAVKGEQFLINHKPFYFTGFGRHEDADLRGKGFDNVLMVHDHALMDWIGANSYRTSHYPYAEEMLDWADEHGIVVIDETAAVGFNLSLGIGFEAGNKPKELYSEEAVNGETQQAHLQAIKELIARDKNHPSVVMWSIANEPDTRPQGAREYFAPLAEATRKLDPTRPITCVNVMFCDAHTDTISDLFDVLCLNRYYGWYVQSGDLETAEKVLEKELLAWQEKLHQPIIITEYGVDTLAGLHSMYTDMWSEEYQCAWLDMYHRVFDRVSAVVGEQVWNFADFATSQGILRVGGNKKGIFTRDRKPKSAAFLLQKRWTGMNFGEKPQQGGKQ

Clc1ccc2c(c1)C(N1CCNCC1)=Nc1ccccc1O2 [amoxapine] was tested, and the “colorimetric PNPG hydrolysis (p-nitrophenol release) with purified enzyme; compl” value was 50 µM.
